From PMC5862592, “CDK8/19 inhibition induces premature G1/S transition and ATR-dependent cell death in prostate cancer cells” (Oncotarget, 2018) come the findings set out here.

Read-outs that look alike come from different tables or passages of the source.

Common to all, as to test: biochemical
What all share (design): KINOMEscan active site-directed competition binding assay (DiscoveRx), 456 kinases, per cent of control at 300 nM
Holding throughout (conditions): read-out: Percent of Control (%)

In one test the target is T1, DCAMKL1 (Homo sapiens, UniProt O15075).
T1 construct: gene DCLK1
In a few lines:
(§1)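 Kinase panel (456 enzymes) profiled by competitive displacement at the active site; compounds run at 300 nmol/L.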

For the next test, the target named is NLK (Homo sapiens, UniProt Q9UBE8). In a few lines: as §1
Another test deals with T2, LOK (Homo sapiens, UniProt O94804).
T2 construct: gene STK10
In outline:
as §1

The next test concerns the target ACVR1B (Homo sapiens, UniProt P36896). In outline: as §1
Another test addresses T3, AMPK-alpha2 (Homo sapiens, UniProt P54646).
T3 construct: gene PRKAA2
In outline: as §1

For test [1], the target named is T4, ABL1(F317I)-phosphorylated (Homo sapiens, UniProt P00519, F317I).
T4 construct: phosphorylated
In a few lines:
as §1

In a further test the target is DAPK2 (Homo sapiens, UniProt Q9UIK4). In a few lines:
as §1

A further test concerns the target ROCK1 (Homo sapiens, UniProt Q13464). In a few lines: as §1
In the next test the target is EGFR(G719S) (Homo sapiens, UniProt P00533, G719S). In outline: as §1
In another test the target is PHKG2 (Homo sapiens, UniProt P15735). In a few lines:
as §1

The next test has as its target SRPK2 (Homo sapiens, UniProt P78362). In a few lines: as §1
Another test addresses AAK1 (Homo sapiens, UniProt Q2M2I8). In a few lines:
as §1

For a further test, the target named is MAP4K3 (Homo sapiens, UniProt Q8IVH8). In outline: as §1
Sequence of MAP4K3 (Q8IVH8 whole entry): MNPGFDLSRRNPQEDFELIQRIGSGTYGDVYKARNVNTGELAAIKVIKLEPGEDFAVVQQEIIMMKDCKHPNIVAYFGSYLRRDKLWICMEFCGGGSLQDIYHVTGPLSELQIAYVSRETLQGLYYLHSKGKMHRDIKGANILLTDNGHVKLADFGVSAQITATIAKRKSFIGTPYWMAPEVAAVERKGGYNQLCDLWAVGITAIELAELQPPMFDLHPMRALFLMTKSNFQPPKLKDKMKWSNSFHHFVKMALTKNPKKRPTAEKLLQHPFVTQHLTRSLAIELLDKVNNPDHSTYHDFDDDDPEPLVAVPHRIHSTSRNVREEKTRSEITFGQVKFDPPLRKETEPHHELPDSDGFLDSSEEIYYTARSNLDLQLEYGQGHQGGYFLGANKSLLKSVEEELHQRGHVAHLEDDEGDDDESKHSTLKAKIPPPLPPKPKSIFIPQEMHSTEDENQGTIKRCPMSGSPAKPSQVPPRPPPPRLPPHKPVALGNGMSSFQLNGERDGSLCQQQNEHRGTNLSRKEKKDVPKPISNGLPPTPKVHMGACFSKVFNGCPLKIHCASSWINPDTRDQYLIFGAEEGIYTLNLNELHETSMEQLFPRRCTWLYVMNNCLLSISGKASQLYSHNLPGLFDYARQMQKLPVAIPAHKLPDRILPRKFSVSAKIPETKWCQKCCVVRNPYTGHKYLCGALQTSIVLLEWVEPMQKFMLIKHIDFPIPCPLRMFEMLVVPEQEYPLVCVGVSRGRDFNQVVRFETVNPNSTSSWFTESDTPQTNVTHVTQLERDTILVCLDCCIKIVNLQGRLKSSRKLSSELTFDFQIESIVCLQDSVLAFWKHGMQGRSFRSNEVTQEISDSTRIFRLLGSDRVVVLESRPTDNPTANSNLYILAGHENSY
In the next test the target is T5, TRKC (Homo sapiens, UniProt Q16288).
T5 construct: gene NTRK3
T5 sequence (Q16288 whole entry): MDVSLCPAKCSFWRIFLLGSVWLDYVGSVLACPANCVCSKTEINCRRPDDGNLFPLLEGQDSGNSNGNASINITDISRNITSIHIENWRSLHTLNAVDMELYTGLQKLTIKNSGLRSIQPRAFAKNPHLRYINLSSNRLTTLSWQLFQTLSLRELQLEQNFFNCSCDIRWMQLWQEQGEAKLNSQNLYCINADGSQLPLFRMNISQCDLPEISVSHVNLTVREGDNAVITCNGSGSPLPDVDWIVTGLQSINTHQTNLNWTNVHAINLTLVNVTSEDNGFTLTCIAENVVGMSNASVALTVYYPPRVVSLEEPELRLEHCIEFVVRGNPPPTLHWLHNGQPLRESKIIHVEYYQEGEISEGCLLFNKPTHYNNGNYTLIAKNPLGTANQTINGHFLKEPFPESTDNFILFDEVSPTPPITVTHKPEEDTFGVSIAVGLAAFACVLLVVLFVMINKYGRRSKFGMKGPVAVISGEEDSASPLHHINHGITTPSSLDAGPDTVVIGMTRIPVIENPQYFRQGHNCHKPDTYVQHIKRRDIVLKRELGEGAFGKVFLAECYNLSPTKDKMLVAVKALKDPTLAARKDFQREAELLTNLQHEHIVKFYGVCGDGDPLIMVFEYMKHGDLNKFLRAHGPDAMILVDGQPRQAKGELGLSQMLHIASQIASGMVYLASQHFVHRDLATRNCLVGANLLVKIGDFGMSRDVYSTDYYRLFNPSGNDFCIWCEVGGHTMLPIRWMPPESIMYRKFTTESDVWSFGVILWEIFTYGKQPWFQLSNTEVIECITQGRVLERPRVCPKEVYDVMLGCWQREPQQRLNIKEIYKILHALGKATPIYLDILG
In outline:
as §1

The target in the next test is T6, NDR1 (Homo sapiens, UniProt Q15208).
T6 construct: gene STK38
In a few lines:
as §1

A further test concerns the target HIPK2 (Homo sapiens, UniProt Q9H2X6). In a few lines: as §1
For a further test, the target named is MARK3 (Homo sapiens, UniProt P27448). In outline:
as §1

Another test concerns the target INSRR (Homo sapiens, UniProt P14616). In outline:
as §1

A further test concerns the target ULK1 (Homo sapiens, UniProt O75385). In outline: as §1
In the next test the target is T7, SNARK (Homo sapiens, UniProt Q9H093).
T7 construct: gene NUAK2
T7 sequence (Q9H093 whole entry): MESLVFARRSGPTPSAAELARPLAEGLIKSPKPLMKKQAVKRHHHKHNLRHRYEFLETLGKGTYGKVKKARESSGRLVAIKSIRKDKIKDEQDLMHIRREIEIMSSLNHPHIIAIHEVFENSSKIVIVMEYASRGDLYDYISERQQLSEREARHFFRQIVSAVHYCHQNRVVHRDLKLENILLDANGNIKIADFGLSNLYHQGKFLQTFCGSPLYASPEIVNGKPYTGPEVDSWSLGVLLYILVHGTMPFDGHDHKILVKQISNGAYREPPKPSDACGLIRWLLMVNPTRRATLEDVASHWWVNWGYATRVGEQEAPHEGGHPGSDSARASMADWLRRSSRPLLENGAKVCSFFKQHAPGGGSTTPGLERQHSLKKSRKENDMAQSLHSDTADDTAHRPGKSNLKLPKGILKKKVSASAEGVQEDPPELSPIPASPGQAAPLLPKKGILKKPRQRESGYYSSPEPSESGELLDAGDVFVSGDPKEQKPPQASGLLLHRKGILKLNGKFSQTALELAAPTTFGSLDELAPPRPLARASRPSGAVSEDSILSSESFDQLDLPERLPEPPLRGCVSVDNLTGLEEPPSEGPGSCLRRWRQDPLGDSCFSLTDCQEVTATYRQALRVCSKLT
In a few lines:
as §1

The target in a further test is SGK2 (Homo sapiens, UniProt Q9HBY8). In a few lines: as §1
The next test concerns the target MAP3K2 (Homo sapiens, UniProt Q9Y2U5). In a few lines: as §1

Sequence of ULK1 (O75385 whole entry): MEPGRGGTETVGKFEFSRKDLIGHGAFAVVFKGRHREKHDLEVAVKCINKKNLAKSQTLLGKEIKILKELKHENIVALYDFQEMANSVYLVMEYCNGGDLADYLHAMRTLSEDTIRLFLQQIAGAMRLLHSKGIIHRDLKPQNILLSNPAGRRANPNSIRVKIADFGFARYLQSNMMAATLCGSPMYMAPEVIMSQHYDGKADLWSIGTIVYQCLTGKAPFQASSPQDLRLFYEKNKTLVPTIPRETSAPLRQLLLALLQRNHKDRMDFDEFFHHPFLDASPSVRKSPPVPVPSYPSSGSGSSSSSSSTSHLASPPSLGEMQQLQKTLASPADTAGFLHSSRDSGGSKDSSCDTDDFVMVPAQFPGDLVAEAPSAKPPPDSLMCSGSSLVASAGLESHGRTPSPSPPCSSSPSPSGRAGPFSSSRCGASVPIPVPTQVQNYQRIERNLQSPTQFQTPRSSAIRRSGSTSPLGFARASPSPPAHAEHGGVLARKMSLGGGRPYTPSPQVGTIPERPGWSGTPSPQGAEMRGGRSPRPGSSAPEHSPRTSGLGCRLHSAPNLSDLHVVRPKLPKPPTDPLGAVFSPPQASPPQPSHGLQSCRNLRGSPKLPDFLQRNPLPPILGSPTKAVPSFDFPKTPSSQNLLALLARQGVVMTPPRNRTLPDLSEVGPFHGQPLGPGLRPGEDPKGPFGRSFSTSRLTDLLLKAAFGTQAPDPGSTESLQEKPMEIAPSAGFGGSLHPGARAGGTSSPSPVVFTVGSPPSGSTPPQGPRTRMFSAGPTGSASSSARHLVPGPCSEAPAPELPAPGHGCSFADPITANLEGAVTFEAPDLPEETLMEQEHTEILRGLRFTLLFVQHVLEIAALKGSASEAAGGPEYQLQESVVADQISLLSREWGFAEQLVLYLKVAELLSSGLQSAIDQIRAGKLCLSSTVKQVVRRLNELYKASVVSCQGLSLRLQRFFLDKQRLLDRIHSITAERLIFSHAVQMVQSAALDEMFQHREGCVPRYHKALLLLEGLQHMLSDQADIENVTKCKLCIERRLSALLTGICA
Sequence of ACVR1B (P36896 whole entry): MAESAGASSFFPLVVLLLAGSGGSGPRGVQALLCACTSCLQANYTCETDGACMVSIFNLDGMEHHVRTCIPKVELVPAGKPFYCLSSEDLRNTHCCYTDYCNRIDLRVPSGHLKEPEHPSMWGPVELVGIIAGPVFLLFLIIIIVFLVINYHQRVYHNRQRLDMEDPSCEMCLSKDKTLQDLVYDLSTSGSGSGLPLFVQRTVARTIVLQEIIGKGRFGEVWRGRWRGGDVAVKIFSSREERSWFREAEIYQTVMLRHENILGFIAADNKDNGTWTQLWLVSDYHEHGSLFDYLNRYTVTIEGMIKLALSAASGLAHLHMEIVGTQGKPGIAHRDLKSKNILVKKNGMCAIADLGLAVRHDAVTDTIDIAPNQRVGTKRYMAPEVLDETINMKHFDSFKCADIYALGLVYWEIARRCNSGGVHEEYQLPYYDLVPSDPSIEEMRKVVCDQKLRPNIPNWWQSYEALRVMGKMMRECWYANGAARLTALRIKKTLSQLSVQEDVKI
Sequence of PHKG2 (P15735 whole entry): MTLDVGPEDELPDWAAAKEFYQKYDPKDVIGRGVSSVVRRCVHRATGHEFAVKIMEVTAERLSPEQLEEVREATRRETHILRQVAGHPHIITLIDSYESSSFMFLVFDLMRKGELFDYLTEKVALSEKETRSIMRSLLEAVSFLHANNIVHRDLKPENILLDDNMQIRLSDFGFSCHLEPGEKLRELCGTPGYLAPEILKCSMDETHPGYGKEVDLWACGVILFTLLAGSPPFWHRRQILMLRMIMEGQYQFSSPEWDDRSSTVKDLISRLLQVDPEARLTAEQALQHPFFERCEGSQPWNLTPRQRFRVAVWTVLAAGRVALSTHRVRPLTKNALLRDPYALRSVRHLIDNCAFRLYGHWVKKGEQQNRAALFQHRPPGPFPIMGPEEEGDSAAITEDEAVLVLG
Sequence of MAP3K2 (Q9Y2U5 whole entry): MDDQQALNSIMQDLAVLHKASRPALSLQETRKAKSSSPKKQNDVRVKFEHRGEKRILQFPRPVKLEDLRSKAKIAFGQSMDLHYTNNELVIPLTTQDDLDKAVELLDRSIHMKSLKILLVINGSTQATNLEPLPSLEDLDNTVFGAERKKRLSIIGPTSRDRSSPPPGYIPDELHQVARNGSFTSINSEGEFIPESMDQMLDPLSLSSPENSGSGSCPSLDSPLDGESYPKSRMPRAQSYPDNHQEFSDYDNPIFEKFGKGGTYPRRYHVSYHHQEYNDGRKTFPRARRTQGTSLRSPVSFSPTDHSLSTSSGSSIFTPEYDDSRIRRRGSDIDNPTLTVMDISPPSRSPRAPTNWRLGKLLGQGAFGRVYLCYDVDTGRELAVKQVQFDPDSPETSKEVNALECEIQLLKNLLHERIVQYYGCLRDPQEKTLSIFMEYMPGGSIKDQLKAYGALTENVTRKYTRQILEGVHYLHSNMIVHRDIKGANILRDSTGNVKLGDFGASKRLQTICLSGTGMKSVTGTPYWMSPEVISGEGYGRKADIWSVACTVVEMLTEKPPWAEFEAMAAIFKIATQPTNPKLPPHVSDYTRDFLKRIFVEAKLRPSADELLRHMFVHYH

On to `O=C(/C=C/c1cnccc1-c1ccc(F)cc1)Nc1ccc(CCc2nnco2)cc1` [T-418, (2E)-3-(4-(4-fluorophenyl)pyridin-3-yl)-N-(4-(2-(1,3,4-oxadiazol-2-yl)ethyl)phenyl)acrylamide], for which the remaining binding at 0.3 µM came to 52% at DCAMKL1 (sheet T-418); 98% on NLK (sheet T-418); 93% on LOK (sheet T-418); 77% at ACVR1B (sheet T-418); 100% on AMPK-alpha2 (sheet T-418); 100% in [1] (sheet T-418). Also, the remaining binding at 0.3 µM was 87% at DAPK2 (sheet T-418); 81% on ROCK1 (sheet T-418); 68% at EGFR(G719S) (sheet T-418); 71% on PHKG2 (sheet T-418); 50% on SRPK2 (sheet T-418); 83% at AAK1 (sheet T-418). For the same molecule, the remaining binding at 0.3 µM at MAP4K3 (sheet T-418) was found to be 82%; at TRKC (sheet T-418) it was 82%; at NDR1 (sheet T-418), 46%; at HIPK2 (sheet T-418), 53%; on MARK3 (sheet T-418) it was 80%; on INSRR (sheet T-418), 100%. Besides, the remaining binding at 0.3 µM at ULK1 (sheet T-418) is 41%; on SNARK (sheet T-418), 60%; on SGK2 (sheet T-418) it was 94%; on MAP3K2 (sheet T-418), 100%.
`Cc1ncccc1Oc1sc(C(N)=O)c2c1-c1c(cnn1C)CC2` [T-474, 1-methyl-8-((2-methylpyridin-3-yl)oxy)-4,5-dihydro-1H-thieno[3,4-g]indazole-6-carboxamide]: the remaining binding at 0.3 µM came out at 69% on DCAMKL1; 100% at NLK; 100% on LOK; 77% at ACVR1B; 100% at AMPK-alpha2; 100% in test [1]. The remaining binding at 0.3 µM on DAPK2 came to 100%; at ROCK1, 100%; at EGFR(G719S) it was 92%; on PHKG2, 88%; at SRPK2, 100%; on AAK1, 93%. Further, the remaining binding at 0.3 µM on MAP4K3 is 100%; at TRKC, 87%; on NDR1, 39%; at HIPK2, 42%; on MARK3 it was 88%; on INSRR, 100%. Further, the remaining binding at 0.3 µM at ULK1 amounted to 43%; on SNARK, 74%; on SGK2, 95%; on MAP3K2, 100%.
